According to publication PMC6801739, “Antitumor Activity of a Novel Tyrosine Kinase Inhibitor AIU2001 Due to Abrogation of the DNA Damage Repair in Non-Small Cell Lung Cancer Cells” (International Journal of Molecular Sciences, 2019):
pIC50: −log10 of the molar value.

Assays:
FLT3 (ITD) = FLT3 (ITD) (Homo sapiens, UniProt P36888, ITD); test: In vitro kinase assay, IC50 (Reaction Biology Corp.); type: biochemical
FLT4 [1] = target: T1, FLT4 (Homo sapiens, UniProt P35916); test: as above; type: biochemical
T1 construct: purchased Eurofins Pharma Discovery (KinaseProfiler); IC50 values by Reaction Biology Corp

c-KIT (V560G) = target: T2, c-KIT (V560G) (Homo sapiens, UniProt P10721, V560G); test: as above; type: biochemical
T2 construct: purchased Eurofins Pharma Discovery (KinaseProfiler); IC50 values by Reaction Biology Corp

Abl = target: T3, Abl (Homo sapiens, UniProt P00519); test: Kinase profiling at 10 μM (Eurofins); type: biochemical; conditions: read-out: Inhibitory activity
T3 construct: purchased Eurofins Pharma Discovery (KinaseProfiler); IC50 values by Reaction Biology Corp

AMPKα1 = target: T4, AMPKα1 (Homo sapiens, UniProt Q13131); test: Kinase profiling at 10 μM (Eurofins); type: biochemical; conditions: read-out: Inhibitory activity
T4 construct: purchased Eurofins Pharma Discovery (KinaseProfiler); IC50 values by Reaction Biology Corp

CDK5/p35 = target: T5, CDK5/p35 (Homo sapiens, UniProt Q00535); test: Kinase profiling at 10 μM (Eurofins); type: biochemical; conditions: read-out: Inhibitory activity
T5 construct: purchased Eurofins Pharma Discovery (KinaseProfiler); IC50 values by Reaction Biology Corp

DDR2 = target: T6, DDR2 (Homo sapiens, UniProt Q16832); test: Kinase profiling at 10 μM (Eurofins); type: biochemical; conditions: read-out: Inhibitory activity
T6 construct: purchased Eurofins Pharma Discovery (KinaseProfiler); IC50 values by Reaction Biology Corp

ERBB4 = target: T7, ERBB4 (Homo sapiens, UniProt Q15303); test: Kinase profiling at 10 μM (Eurofins); type: biochemical; conditions: read-out: Inhibitory activity
T7 construct: purchased Eurofins Pharma Discovery (KinaseProfiler); IC50 values by Reaction Biology Corp

FLT4 [2] = target: T1, FLT4; test: Kinase profiling at 10 μM (Eurofins); type: biochemical; conditions: read-out: Inhibitory activity
HIPK2 = target: T8, HIPK2 (Homo sapiens, UniProt Q9H2X6); test: Kinase profiling at 10 μM (Eurofins); type: biochemical; conditions: read-out: Inhibitory activity
T8 construct: purchased Eurofins Pharma Discovery (KinaseProfiler); IC50 values by Reaction Biology Corp

IKKα = target: T9, IKKα (Homo sapiens, UniProt O15111); test: Kinase profiling at 10 μM (Eurofins); type: biochemical; conditions: read-out: Inhibitory activity
T9 construct: purchased Eurofins Pharma Discovery (KinaseProfiler); IC50 values by Reaction Biology Corp

MEK1 = target: T10, MEK1 (Homo sapiens, UniProt Q02750); test: Kinase profiling at 10 μM (Eurofins); type: biochemical; conditions: read-out: Inhibitory activity
T10 construct: purchased Eurofins Pharma Discovery (KinaseProfiler); IC50 values by Reaction Biology Corp

Met = target: T11, Met (Homo sapiens, UniProt P08581); test: Kinase profiling at 10 μM (Eurofins); type: biochemical; conditions: read-out: Inhibitory activity
T11 construct: purchased Eurofins Pharma Discovery (KinaseProfiler); IC50 values by Reaction Biology Corp

p70S6K = target: T12, p70S6K (Homo sapiens, UniProt P23443); test: Kinase profiling at 10 μM (Eurofins); type: biochemical; conditions: read-out: Inhibitory activity
T12 construct: purchased Eurofins Pharma Discovery (KinaseProfiler); IC50 values by Reaction Biology Corp

PIM-1 = target: T13, PIM-1 (Homo sapiens, UniProt P11309); test: Kinase profiling at 10 μM (Eurofins); type: biochemical; conditions: read-out: Inhibitory activity
T13 construct: purchased Eurofins Pharma Discovery (KinaseProfiler); IC50 values by Reaction Biology Corp

SRC (1-530) = target: T14, SRC (1-530) (Homo sapiens, UniProt P12931); test: Kinase profiling at 10 μM (Eurofins); type: biochemical; conditions: read-out: Inhibitory activity
T14 construct: purchased Eurofins Pharma Discovery (KinaseProfiler); IC50 values by Reaction Biology Corp

TAK1 = target: T15, TAK1 (Homo sapiens, UniProt O43318); test: Kinase profiling at 10 μM (Eurofins); type: biochemical; conditions: read-out: Inhibitory activity
T15 construct: purchased Eurofins Pharma Discovery (KinaseProfiler); IC50 values by Reaction Biology Corp

BEAS2B cells = test: MTT cell viability assay; type: cell-based, human; conditions: BEAS2B normal bronchial epithelial cells, five days
Protocol: (§1) Cell viability was assessed using the MTT colorimetric assay. Cells (1 × 10^3 cells/well) were seeded into 96-well plates and treated with the various concentrations of each compound or combination of two compounds. After five days of treatment, 10 μL MTT (0.5 mg/mL) was added, and further incubated for 3 h. After removal of the supernatant, the resultant pellet was dissolved in DMSO. The absorbance of the resultant formazan was measured at 540 nm using a plate reader (Multiskan EX; ThermoLabsystems, Waltham, MA, USA).

CCD18-Lu cells = test: MTT cell viability assay; type: cell-based, human; conditions: CCD18-Lu lung fibroblast cells, five days
Protocol: as §1

H460 cells = test: MTT cell viability assay; type: cell-based, human; conditions: five days
Protocol: as §1

HCT116 p53+/+ cells = test: MTT cell viability assay; type: cell-based, human; conditions: 5 days
Protocol: as §1
(§2) Supplementary Figure 1. AIU2001 inhibited the proliferation of various cancer cells. (A and B)
(§3) Human AML cells (Molm-13 and MV4-11; A) and human colorectal cancer (CRC) cells
(§4) (HCT116/p53+/+ and HCT116/p53-/-; B) were treated with AIU2001 at the indicated concentrations for
(§5) 5 days and viable cells were evaluated using the CCK-8 assay for AML cells and the MTT assay for
(§6) CRC cells. *p < 0.05, **p < 0.01, ***p < 0.001 versus respective vehicle controls.
(§7) (also on this page, place not known: ca ncer fo r 02468 Cell viability (%) 0 1 Cell viability (%) *** *** ***)

HCT116 p53-/- cells = test: MTT cell viability assay; type: cell-based, human; conditions: 5 days
Protocol: as §1, §2, §3, §4, §5, §6, §7

A549 cells = test: Detection of intracellular ROS (CM-H2DCFDA, flow cytometry); type: cell-based, human; conditions: 5 μM, 24 h
Protocol: (§8) DMSO- or AIU2001-treated cells (5 × 10^5) were further treated with 10 μM CM-H2DCFH-DA for 30min and then washed with PBS before trypsinization. After detaching with trypsin, the cells were collected, washed, and resuspended in PBS. ROS inhibition was evaluated by treating cells with 5 mM NAC 2 h prior to AIU2001 treatment. Intracellular ROS levels were detected using a flow cytometer (CyFlow cube 6) at excitation/emission wavelengths of 488/525 nm.

H1299 cells [3] = test: as above; type: cell-based, human; conditions: 5 μM, 24 h
Protocol: as §8

MV4-11 cells = test: Immunoblot of phospho-STAT5; type: cell-based, human; conditions: 1 h
Protocol: (§9) Cell lysates were prepared by extracting proteins with TNN buffer (40 mM Tris-Cl pH 8.0, 0.2% NP-40, 120 mM NaCl) or radioimmunoprecipitation assay (RIPA) lysis buffer (Millipore, Billerica MA, USA) supplemented with a protease inhibitor cocktail (Thermo Fisher Scientific, Rockford, IL, USA). Equal amounts of proteins were separated using SDS-PAGE on 8–13% gels, and transferred to nitrocellulose membranes (Bio-Rad, Hercules, CA, USA). The membranes were blocked with 5% skim milk in Tris-buffered saline-Tween 20 (TBST) (150 mM NaCl, 10 mM Tris, 0.2% Tween20), followed by overnight incubation with primary antibodies at 4 °C. The blots were developed using peroxidase-conjugated secondary antibody and the immunoreactive proteins were visualized using enhanced chemiluminescence (ECL) reagents, according to the manufacturer’s recommendations (Amersham, GE Healthcare, Buckingamshire, UK). The protein bands were visualized using a digital imaging system (ImageQuant LAS 4000 mini; GE Healthcare, UK). The protein levels were analyzed using Image J software (National Institutes of Health, Bethesda, MD, USA). Experiments were repeated at least thrice.
(§10) Supplementary Figure 3. AIU2001 inhibited downstream effector STAT5 of FLT3 signaling in
(§11) FLT3(ITD)-AML cells. […]
(§12) AIU2001 for 1h. Cell lysates were prepared and analyzed using immunoblotting for detecting […]

Molm-13 cells = test: Immunoblot of phospho-STAT5; type: cell-based, human; conditions: 1 h
Protocol: as §9, §10, §11, §12

H1299 cells [4] = test: Immunoblot of phospho-STAT5; type: cell-based, human
Protocol: as §9

T1 sequence (P35916 25-1363): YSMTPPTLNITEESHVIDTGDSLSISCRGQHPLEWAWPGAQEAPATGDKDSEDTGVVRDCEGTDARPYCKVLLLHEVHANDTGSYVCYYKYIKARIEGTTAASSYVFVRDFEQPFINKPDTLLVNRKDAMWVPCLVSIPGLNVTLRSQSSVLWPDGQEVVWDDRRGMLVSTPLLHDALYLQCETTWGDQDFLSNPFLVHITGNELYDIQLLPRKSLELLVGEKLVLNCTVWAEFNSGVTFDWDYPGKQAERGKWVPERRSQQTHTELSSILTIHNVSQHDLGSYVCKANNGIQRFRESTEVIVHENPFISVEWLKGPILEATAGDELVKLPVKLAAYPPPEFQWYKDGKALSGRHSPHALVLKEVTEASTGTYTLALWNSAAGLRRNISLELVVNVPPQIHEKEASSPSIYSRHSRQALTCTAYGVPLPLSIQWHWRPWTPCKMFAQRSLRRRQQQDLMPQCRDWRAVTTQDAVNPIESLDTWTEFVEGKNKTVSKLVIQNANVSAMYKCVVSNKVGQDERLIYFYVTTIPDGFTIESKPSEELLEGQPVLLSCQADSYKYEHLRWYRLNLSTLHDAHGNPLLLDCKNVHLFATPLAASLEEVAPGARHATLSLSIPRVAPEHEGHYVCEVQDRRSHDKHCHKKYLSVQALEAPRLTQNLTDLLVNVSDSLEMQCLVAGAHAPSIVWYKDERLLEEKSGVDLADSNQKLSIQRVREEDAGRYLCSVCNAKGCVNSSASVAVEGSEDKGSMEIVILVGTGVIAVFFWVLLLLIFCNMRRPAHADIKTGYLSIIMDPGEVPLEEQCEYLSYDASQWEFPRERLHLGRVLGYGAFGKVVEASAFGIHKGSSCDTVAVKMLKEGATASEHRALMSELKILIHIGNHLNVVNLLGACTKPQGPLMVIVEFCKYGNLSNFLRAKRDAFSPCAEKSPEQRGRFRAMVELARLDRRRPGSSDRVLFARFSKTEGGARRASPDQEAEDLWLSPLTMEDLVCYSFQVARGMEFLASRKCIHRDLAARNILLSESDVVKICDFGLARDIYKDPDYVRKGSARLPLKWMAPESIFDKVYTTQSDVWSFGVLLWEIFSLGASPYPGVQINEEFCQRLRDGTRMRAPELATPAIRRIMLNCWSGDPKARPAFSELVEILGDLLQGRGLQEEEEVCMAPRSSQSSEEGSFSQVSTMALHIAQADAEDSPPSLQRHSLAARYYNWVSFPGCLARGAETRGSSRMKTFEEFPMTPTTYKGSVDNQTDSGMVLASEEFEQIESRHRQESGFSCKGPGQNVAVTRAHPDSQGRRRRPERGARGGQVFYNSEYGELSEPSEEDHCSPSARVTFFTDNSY
T15 sequence (O43318 1-303 limits assumed): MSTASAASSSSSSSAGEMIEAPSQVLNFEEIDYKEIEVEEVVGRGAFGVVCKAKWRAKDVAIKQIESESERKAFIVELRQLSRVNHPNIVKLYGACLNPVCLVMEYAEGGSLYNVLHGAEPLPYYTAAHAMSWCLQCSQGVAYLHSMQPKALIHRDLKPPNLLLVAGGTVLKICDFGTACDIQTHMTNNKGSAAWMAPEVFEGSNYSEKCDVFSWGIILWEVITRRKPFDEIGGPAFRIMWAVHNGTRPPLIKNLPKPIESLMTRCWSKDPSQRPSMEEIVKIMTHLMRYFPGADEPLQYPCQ
T4 sequence (Q13131 whole entry): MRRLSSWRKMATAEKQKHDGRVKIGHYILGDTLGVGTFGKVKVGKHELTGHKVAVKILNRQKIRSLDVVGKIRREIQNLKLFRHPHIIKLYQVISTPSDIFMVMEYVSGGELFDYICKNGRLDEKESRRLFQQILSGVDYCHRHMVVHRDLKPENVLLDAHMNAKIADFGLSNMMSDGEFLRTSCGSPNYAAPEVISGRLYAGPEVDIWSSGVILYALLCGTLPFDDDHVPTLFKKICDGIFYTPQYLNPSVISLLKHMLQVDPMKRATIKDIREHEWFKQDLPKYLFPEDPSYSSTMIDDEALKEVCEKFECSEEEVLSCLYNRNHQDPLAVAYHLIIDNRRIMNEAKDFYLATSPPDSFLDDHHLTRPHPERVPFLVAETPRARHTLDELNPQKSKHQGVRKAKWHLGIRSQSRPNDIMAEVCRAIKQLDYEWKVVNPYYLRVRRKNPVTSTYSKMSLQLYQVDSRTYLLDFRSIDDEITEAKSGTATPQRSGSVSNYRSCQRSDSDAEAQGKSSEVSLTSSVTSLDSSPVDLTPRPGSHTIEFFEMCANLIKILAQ
T4 sequence (Q9Y478 whole entry partner): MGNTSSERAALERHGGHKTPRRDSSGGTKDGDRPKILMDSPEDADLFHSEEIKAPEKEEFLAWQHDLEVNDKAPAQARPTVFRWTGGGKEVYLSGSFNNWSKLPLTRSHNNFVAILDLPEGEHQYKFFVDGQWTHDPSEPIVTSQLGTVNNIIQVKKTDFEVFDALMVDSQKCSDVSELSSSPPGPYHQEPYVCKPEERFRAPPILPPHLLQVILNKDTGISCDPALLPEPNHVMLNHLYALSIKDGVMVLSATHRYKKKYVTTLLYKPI
T4 sequence (P54619 whole entry partner): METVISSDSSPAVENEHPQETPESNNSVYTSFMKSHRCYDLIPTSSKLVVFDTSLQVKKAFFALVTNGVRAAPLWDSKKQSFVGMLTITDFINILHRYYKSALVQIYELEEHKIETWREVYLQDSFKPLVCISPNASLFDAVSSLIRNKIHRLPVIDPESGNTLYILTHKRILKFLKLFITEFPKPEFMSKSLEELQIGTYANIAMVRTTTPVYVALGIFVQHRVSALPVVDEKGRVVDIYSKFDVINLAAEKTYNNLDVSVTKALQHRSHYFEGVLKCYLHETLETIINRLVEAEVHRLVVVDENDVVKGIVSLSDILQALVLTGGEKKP
FLT3 (ITD), sequence (P36888 564-993, change not shown): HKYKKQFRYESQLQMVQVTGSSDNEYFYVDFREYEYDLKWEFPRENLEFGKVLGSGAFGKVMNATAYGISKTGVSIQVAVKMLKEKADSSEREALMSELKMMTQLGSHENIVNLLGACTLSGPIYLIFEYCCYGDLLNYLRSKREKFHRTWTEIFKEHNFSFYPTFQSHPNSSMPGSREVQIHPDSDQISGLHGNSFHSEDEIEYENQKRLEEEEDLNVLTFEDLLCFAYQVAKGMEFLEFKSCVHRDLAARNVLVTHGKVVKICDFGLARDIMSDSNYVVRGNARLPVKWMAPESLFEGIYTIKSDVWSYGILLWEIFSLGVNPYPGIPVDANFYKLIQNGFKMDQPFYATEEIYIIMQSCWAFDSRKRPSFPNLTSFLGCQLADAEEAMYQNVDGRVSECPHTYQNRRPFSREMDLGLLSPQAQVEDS
T3 sequence (P00519 whole entry): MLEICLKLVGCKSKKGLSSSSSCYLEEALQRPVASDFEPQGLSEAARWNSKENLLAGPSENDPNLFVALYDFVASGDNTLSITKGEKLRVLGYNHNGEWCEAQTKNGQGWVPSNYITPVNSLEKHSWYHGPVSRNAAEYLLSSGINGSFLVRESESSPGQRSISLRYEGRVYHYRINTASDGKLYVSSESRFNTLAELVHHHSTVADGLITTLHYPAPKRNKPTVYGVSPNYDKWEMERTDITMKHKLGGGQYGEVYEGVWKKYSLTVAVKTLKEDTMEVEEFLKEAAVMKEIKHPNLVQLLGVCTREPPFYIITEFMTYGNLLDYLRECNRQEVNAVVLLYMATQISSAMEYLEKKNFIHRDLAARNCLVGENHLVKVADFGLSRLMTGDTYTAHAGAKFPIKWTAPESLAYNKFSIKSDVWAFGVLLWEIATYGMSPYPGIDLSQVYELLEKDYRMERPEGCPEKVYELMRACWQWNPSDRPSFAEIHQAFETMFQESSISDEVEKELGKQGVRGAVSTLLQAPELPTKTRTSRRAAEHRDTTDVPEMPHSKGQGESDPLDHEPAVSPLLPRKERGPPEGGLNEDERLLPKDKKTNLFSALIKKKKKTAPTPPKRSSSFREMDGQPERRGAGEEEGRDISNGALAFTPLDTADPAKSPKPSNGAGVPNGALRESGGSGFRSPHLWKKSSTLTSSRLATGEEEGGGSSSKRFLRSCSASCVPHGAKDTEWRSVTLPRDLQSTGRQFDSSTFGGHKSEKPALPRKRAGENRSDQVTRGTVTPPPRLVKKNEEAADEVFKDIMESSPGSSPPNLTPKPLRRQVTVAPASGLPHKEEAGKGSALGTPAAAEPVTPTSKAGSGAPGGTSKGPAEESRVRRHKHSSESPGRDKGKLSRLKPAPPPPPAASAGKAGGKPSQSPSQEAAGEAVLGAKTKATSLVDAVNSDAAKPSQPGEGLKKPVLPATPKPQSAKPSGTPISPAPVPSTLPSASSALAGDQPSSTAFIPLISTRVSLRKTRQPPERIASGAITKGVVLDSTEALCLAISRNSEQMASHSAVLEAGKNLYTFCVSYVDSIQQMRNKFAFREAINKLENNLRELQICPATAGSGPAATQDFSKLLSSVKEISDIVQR
T5 sequence (Q00535 whole entry): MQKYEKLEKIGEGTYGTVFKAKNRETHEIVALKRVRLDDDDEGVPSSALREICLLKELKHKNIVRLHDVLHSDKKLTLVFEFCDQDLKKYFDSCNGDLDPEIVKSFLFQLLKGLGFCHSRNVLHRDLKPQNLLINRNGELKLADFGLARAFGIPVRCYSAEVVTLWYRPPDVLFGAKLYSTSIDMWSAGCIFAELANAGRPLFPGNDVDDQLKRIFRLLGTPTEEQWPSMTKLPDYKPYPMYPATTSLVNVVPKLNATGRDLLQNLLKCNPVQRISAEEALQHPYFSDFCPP
T5 sequence (Q15078 whole entry partner): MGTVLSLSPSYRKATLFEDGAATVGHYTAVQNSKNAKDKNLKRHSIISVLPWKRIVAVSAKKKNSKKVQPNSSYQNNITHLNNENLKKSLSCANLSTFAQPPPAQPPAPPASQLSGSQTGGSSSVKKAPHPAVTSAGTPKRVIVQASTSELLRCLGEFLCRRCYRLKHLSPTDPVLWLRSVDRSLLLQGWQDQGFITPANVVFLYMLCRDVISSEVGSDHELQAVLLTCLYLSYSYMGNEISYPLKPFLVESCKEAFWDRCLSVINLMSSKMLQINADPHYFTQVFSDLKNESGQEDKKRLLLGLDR

Brc1ccc(-c2cnc(Nc3cccc4ccccc34)o2)cc1 [AIU2001, 5-(4-bromophenyl)-N-(naphthalen-1-yl) oxazol-2-amine]
pIC50 (FLT3 (ITD)): 7.20 | pIC50 (FLT4 [1]): 6.10 | pIC50 (c-KIT (V560G)): 7.27 | inhibition at 10 µM (Abl): 51% | inhibition at 10 µM (AMPKα1): 25% | inhibition at 10 µM (CDK5/p35): 58% | inhibition at 10 µM (DDR2): 55% | inhibition at 10 µM (ERBB4): 1% | inhibition at 10 µM (FLT4 [2]): ≥ 75% | inhibition at 10 µM (HIPK2): 0% | inhibition at 10 µM (IKKα): 7% | inhibition at 10 µM (MEK1): 0% | inhibition at 10 µM (Met): 1% | inhibition at 10 µM (p70S6K): 8% | inhibition at 10 µM (PIM-1): 37% | inhibition at 10 µM (SRC (1-530)): 10% | inhibition at 10 µM (TAK1): 15% | Growth inhibition (BEAS2B cells): relatively less | Growth inhibition (CCD18-Lu cells): relatively less | Growth inhibition (H460 cells): significantly inhibited the growth | Growth inhibition (HCT116 p53+/+ cells): inhibited the growth | Growth inhibition (HCT116 p53-/- cells): inhibited the growth | ROS levels (A549 cells): distinctly increased ROS levels | ROS levels (H1299 cells [3]): distinctly increased ROS levels | Phosphorylated STAT5 (MV4-11 cells): dose-dependently inhibited phosphorylated STAT5 | Phosphorylated STAT5 (Molm-13 cells): dose-dependently inhibited phosphorylated STAT5 | Phosphorylated STAT5 (H1299 cells [4]): inhibited phosphorylated STAT5
